Test results as given in US20260176290A1, “INHIBITORS OF KRAS(G12D)” (Ranok Therapeutics (Hangzhou) Co. Ltd., priority 2022, published 2026).

Legend:
[1] = tested on: A-427 lung carcinoma cells [heterozygous G12D]; experiment: Cancer cell line proliferation (CellTiter-Glo), A-427; type: cell-based; conditions: Homo sapiens, A427 cells, 72 hr, read-out: CTG(IC50), ABS-72 H(nM) A427
Procedure: (§1) The following cancer cell lines were employed: AGS gastric carcinoma [heterozygous G12D] (ATCC, CRL-1739); A-427 lung carcinoma [heterozygous G12D] (ATCC, HTB-53); ASPC1 pancreatic adenocarcinoma [homozygous G12D] (ATCC, CRL-1682) and SW1990 pancreatic adenocarcinoma [homozygous G12D] (ATCC CRL-2172). Cell lines were cultured essentially according to ATCC recommendations.
(§2) AGS, A-427, ASPC1, SW1990, and GP2D cells were plated in 96-well tissue culture plates at 4,000 cells/well and incubated at 37° C./5% CO2 for 72 hr in 100 μl of media. 3-fold serial dilutions of each test compound were prepared ranging from 20 μM to 1.02 nM. Each cell line was then treated with test compounds at various concentrations with a final concentration of 0.5% DMSO/well, and then incubated at 37° C./5% CO2 for 72 hr. 100 μl of CellTiter-Glo® Reagent (Promega Corporation, Madison, WI) was added to each well and processed according manufacturer's protocol. Results were analyzed and IC50 5 values were calculated in GraphPad 7 software.

[2] = tested on: ASPC1 pancreatic adenocarcinoma cells [homozygous G12D]; experiment: Cancer cell line proliferation (CellTiter-Glo), ASPC1; type: cell-based; conditions: Homo sapiens, ASPC-1 cells, 72 hr, read-out: CTG(IC50), ABS-72 H(nM) ASPC-1
Procedure: as §1, §2

[3] = biological target: T1, KRAS (G12D)/SOS1 (Homo sapiens, UniProt P01116, G12D); experiment: KRAS (G12D)/SOS1 homogeneous time-resolved fluorescence (HTRF) assay; type: binding; conditions: absence of GTP, 4° C. for 3 hr
T1 construct: purchased Cisbio 63ADK000CB17PEH
T1 sequence (P01116 1-188 isoform P01116-2 G12D): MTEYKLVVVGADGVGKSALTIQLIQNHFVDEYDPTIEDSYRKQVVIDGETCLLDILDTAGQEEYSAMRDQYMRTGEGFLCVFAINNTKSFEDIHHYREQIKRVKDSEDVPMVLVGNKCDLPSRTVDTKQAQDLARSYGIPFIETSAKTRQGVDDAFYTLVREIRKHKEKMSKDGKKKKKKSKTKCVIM
Procedure: 3-fold serial dilutions of each test compound were prepared ranging from 20 μM to 1.02 nM. The test compound was mixed and incubated with reaction components, incubated in a sealed plate at 4° C. for 3 hr and fluorescence was measured using a PerkinElmer Envision plate reader. […]

[4] = tested on: SW1990 pancreatic adenocarcinoma cells [homozygous G12D]; experiment: Cancer cell line proliferation (CellTiter-Glo), SW1990; type: cell-based; conditions: Homo sapiens, 72 hr, read-out: CTG(IC50), ABS-72 H(nM) SW1990
Procedure: as §1, §2

[5] = Oral bioavailability in CD-1 mice; conditions: male, CD-1, mouse, blood
Procedure: CD-1 mice were randomly assigned to 6 groups with 3 male mice in each compound group. […] Compounds were orally administered (PO) in a single dose to each mouse in its group. Blood samples were taken within 72 hours. Bioavailability (F %) was determined and by liquid chromatography-mass spectrometry (LC-MS/MS).

[6] = tested on: AGS gastric carcinoma cells [heterozygous G12D]; experiment: Cancer cell line proliferation (CellTiter-Glo), AGS; type: cell-based; conditions: Homo sapiens, 72 hr, read-out: CTG(IC50), ABS-72 H(nM) AGS
Procedure: as §1, §2

SMILES | IC50 [1] | IC50 [2] | IC50 [3] | IC50 [4] | bioavailability [5] | IC50 [6]
C#Cc1c(F)ccc2cc(O)cc(-c3ncc4c(N5CC6CCC(C5)N6)nc(OCC5(CN6CC7CC7C6)CC5)nc4c3F)c12 (stereo not shown) [Example 13] | < 100 nM | < 100 nM | < 100 nM | < 100 nM | 1.98% | < 100 nM
C#Cc1c(F)ccc2cc(O)cc(-c3nc(Cl)c4c(N5CC6CCC(C5)N6)nc(OCC5(CN6CCC(C(F)(F)F)CC6)CC5)nc4c3F)c12 [Example 36] | 100 to 1000 nM | < 100 nM | < 100 nM | < 100 nM | – | < 100 nM
C#Cc1c(F)ccc2cc(O)cc(-c3ncc4c(N5CC6CCC(C5)N6)nc(OCC5(CN6CC=C(C(F)(F)F)CC6)CC5)nc4c3F)c12 [Example 26] | 100 to 1000 nM | < 100 nM | < 100 nM | < 100 nM | – | < 100 nM
C#Cc1c(F)ccc2cc(O)cc(-c3nc(OC)c4c(N5CC6CCC(C5)N6)nc(OCC5(CN6CC7C(C6)C7C(F)(F)F)CC5)nc4c3F)c12 (stereo not shown) [Example 41] | 100 to 1000 nM | < 100 nM | < 100 nM | < 100 nM | – | < 100 nM
C#Cc1c(F)ccc2cc(O)cc(-c3nc(OC(C)C)c4c(N5CC6CCC(C5)N6)nc(OCC5(CN6CCC(C(F)(F)F)CC6)CC5)nc4c3F)c12 [Example 29] | 100 to 1000 nM | < 100 nM | < 100 nM | < 100 nM | – | < 100 nM
C#Cc1c(F)ccc2cc(O)cc(-c3nc(N(C)C)c4c(N5CC6CCC(C5)N6)nc(OCC5(CN6CCC(F)CC6)CC5)nc4c3F)c12 [Example 23] | > 1000 nM | > 1000 nM | 100 to 1000 nM | > 1000 nM | – | > 1000 nM
C#Cc1c(F)ccc2cc(O)cc(-c3nc(OC)c4c(N5CC6CCC(C5)N6)nc(OCC5(CN6CC7C(C#N)C7C6)CC5)nc4c3F)c12 (stereo not shown) [Example 51] | – | < 100 nM | < 100 nM | < 100 nM | 2.3% | < 100 nM
C#Cc1c(F)ccc2cc(O)cc(-c3nc(OC)c4c(N5CC6CCC(C5)N6)nc(OCC5(CN6CCCC6)CC5)nc4c3F)c12 [Ref. 3, reference compound] | – | – | – | – | 0.23% | < 100 nM
C#Cc1c(F)ccc2cc(O)cc(-c3nc(OC)c4c(N5CC6CCC(C5)N6)nc(OCC5(CN6CC7C(C6)C7(F)F)CC5)nc4c3F)c12 (stereo not shown) [Example 49] | – | < 100 nM | < 100 nM | < 100 nM | 3.82% | < 100 nM
C#Cc1c(F)ccc2cc(O)cc(-c3nc(OC(F)F)c4c(N5CC6CCC(C5)N6)nc(OCC5(CN6CCC(C(F)(F)F)CC6)CC5)nc4c3F)c12 [Example 32] | 100 to 1000 nM | 100 to 1000 nM | < 100 nM | < 100 nM | – | < 100 nM
C#Cc1c(F)ccc2cc(O)cc(-c3ncc4c(N5CC6CCC(C5)N6)nc(OCC(=C)CN5CCC(F)CC5)nc4c3F)c12 [Example 27] | 100 to 1000 nM | 100 to 1000 nM | < 100 nM | < 100 nM | – | < 100 nM
C#Cc1c(F)ccc2cc(O)cc(-c3ncc4c(N5CC6CCC(C5)N6C(=O)OC(C)OC(C)=O)nc(OCC5(CN6CCC(F)CC6)CC5)nc4c3F)c12 (stereo not shown) [Example 52] | 100 to 1000 nM | < 100 nM | < 100 nM | < 100 nM | – | < 100 nM
C#Cc1c(F)ccc2cc(O)cc(-c3nc(Cl)c4c(N5CC6CCC(C5)N6)nc(OCC5(CN6CCC(F)CC6)CC5)nc4c3F)c12 [Example 28] | 100 to 1000 nM | < 100 nM | < 100 nM | < 100 nM | – | < 100 nM
C#Cc1c(F)ccc2cc(O)cc(-c3nc(OC4CC4)c4c(N5CC6CCC(C5)N6)nc(OCC5(CN6CC7CC7C6)CC5)nc4c3F)c12 (stereo not shown) [Example 40] | 100 to 1000 nM | < 100 nM | < 100 nM | < 100 nM | – | < 100 nM
C#Cc1c(F)ccc2cc(O)cc(-c3nc(OC)c4c(N5CC6CCC(C5)N6)nc(OCC5(CN6CC(F)C(F)C6)CC5)nc4c3F)c12 (stereo not shown) [Example 42] | 100 to 1000 nM | < 100 nM | < 100 nM | < 100 nM | – | < 100 nM
